# Laboratory results reported in patent US4547507A, “Benzothiopyranopyridinones” (Roussel Uclaf, priority 1982, dated 1985).
# System: rat cortical α2 receptor
# Experiment: Test C: [3H]Dihydroergocryptine displacement from rat cortical α2 receptor binding sites
# Details: cortical membranes, under the conditions of assay
# Description: Test C--[^3 H]Dihydroergocryptine displacement from rat cortical α2 *receptor binding sites
# (a) Radioligand--[9,10(n)-^3 H]9,10-Dihydroergocryptine (Amersham International, TRK 555, 17.5 Ci/mmole) was used as a 1 μCi/1 μl solution and this stock solution was diluted 1/6250 in assay buffer and 0.1 ml volumes of this were added to 2 ml binding assays. =0.45 nM and =0.016 μCi/binding assay
# *In cortical membranes, [^3 H]dihydroergocryptine binds to both α1 and α2 receptor binding sites under the conditions of assay described here, approximately 80% of the binding is associated with α2 receptors.
# (b) Membrane preparation--As for Test B
# (c) Non-specific binding--As for Test B
# (d) Displacing compounds--As for Test B
# (e) Assay protocol--As for Test B with the exception that the binding assays were incubated at 25° C. for 45 minutes in the dark.
smiles,measurement,value
"[3H]C1C(C(=O)NC2(C(C)C)OC3(O)C4CCCN4C(=O)C(CC(C)C)N3C2=O)CN(C)C2Cc3c[nH]c4cccc(c34)C12[3H] (stereo not shown) [[^3 H]dihydroergocryptine, [9,10(n)-^3 H]9,10-Dihydroergocryptine, reference compound]",share of the radioligand binding associated with α2 receptors,approximately 80%
